Assay results from patent US20080020387A1, “BIOMARKER-OPTIMIZED ADHD TREATMENT” (priority 2006, published 2008).

Tests used:
ADHD patients = details: cited from earlier work
children with ADHD [1] = assay: Paired and single TMS of motor cortex measuring short interval cortical inhibition (SICI) before and after single drug doses; assay type: in vivo, human; details: for Cortical Inhibition (SICI), post-medication: 90 minutes later
Experimental: Accordingly, sixteen children with ADHD, aged 8-17, are studied. Seven are homozygotes for the 10-repeat allele. Subjects are given single oral doses of 0.5 mg/kg methylphenidate and 1.0 mg/kg atomoxetine at visits separated by one week in a randomized, double-blind crossover design. Paired and single TMS are used to measure SICI before and after drug administration. Medication and genotype effects on SICI are estimated with repeated measures, mixed model regression. […] Some variation in ADHD medication-induced neurophysiological responses is explained by differences in the number of 3′-UTR, 10-repeat VNTR alleles in DAT1.
(§1) The study is a randomized, double-blind, crossover design comparing the effects of single doses of atomoxetine (ATX) and methylphenidate (MPH). Sixteen patients (age 8-17 years, mean age=12, ±3; 2 girls) participate. Nine have TS. Medication doses are clinically relevant: approximately 0.5 mg/kg for MPH and 1.0 mg/kg for ATX, administered as follows:
(§2) 1) subjects 20-29 kg→10 mg MPH, 20 mg ATX; 2) subjects 30-49 kg→20 mg MPH, 40 mg ATX; 3) subjects 50 kg and above→30 mg MPH, 60 mg ATX. Subjects and investigators are blind to the order of treatment throughout the study. The one-week interval between study visits is based on published pharmacokinetic data for single doses of ATX.
Neurophysiological studies are performed as described by Gilbert et al. ((2006) Neuropsychopharmacology 31 :442-449). TMS is performed by an investigator blind to genotype and clinical ratings.
Resting and active motor threshold (RMT and AMT) are measured using the method described in Mills and Nithi ((1997) Muscle and Nerve 20:570-576). SICI and intracortical facilitation (ICF) are measured with the Abductor Pollicis Brevis (APB) at rest, according to established paradigms (Kujirai et al. (1993) J. Physiol. 471:501-519; Ziemann et al. (1997) Electroencelphalogr. Clin. Neurophysiol. 105:430-437). SICI is measured with a conditioning pulse, 1% of stimulator output below AMT (˜70% of RMT), delivered 3 msec before a suprathreshold test pulse. ICF is measured with the conditioning pulse 10 msec before the test pulse. Twenty trials at each interval and 20 unconditioned test pulses are delivered in random order. SICI and ICF are expressed as the ratios of the mean motor evoked potential (MEP) amplitudes evoked by the pulse pairs divided by the mean amplitude of the MEP from the single test pulses.
After baseline TMS testing, subjects are administered study medication, and all measurements are repeated 90 minutes later, consistent with expected peak serum drug levels. Each TMS session takes approximately 30 minutes.
Primary analysis. The primary outcome of interest for this study is ADHD-medication, genotype, and medication*genotype effects on cortical inhibition (SICI). SICI measures are subjected to a mixed model, repeated measures analysis of variance using PROC MIXED. After assuring that baselines are not different and that there are no effects of order, we then model SICI=medication+DAT genotype+medication*genotype, combining baselines. Age and ADHD severity scores are also entered into the models as potential explanatory covariates. ICF is modeled in the same manner to determine if any effects are specific to cortical inhibition.
Secondary analyses. The secondary outcome of interest is to compare ATX and MPH effects on cortical inhibition (SICI). Two repeated measure regressions are performed: 1) the baselines-combined model above, and 2) a day-of-visit, baseline-adjusted model. Genotypes are entered to estimate genotype-specific effects of ATX vs. MPH. The Tic phenotype is entered to estimate TIC*medication and TIC*ATX vs. TIC*MPH effects. In addition, using Spearman, correlations of changes in SICI and ICF are assessed for ATX and MPH, and for SICI and ADHD severity.

children with ADHD [2] = assay: Reported side effects after single drug dose and TMS; assay type: in vivo, human
Experimental: as §1, §2

children with ADHD [3] = details: single 10 mg dose, Moll et al. (2000); cited from earlier work
[4] = DAT1 10-repeat homozygotes, single oral dose
[5] = DAT 9, 10 genotype, single oral dose, baseline-adjusted estimate
[6] = DAT 10, 10 genotype, single oral dose, baseline-adjusted estimate
[7] = No Tics, single oral dose, baseline-adjusted estimate
[8] = Tics, single oral dose, baseline-adjusted estimate
[9] = all subjects, single oral dose ~1.0 mg/kg ATX or ~0.5 mg/kg MPH, adjusted for day-of-visit pre-treatment SICI, MEP amplitude ratio
[10] = heterozygotes (single 10-repeat DAT1 allele), single oral dose
[11] = individuals with ADHD and no TS, single oral dose
[12] = patients with ADHD and TS, single oral dose

CNCC[C@@H](Oc1ccccc1C)c1ccccc1 [ATX, atomoxetine]
ADHD patients who do not respond to treatment (non-response rate) (ADHD patients; clinical evidence, Michelson et al. (2002)): approximately 40%
Effect of medication on SICI (children with ADHD [1]; [4]): slight decrease in SICI
Cortical Inhibition (SICI), post-medication (children with ADHD [1]; [5]): 0.51
Cortical Inhibition (SICI), post-medication (children with ADHD [1]; [6]): 0.66
Cortical Inhibition (SICI), post-medication (children with ADHD [1]; [7]): 0.62
Cortical Inhibition (SICI), post-medication (children with ADHD [1]; [8]): 0.56
Cortical Inhibition (SICI), post-medication (children with ADHD [1]; [9]): 0.59
Effect of medication on SICI (children with ADHD [1]; [10]): tend to increase (normalize) SICI
Effect of medication on SICI (children with ADHD [1]; heterozygotes (single 10-repeat DAT1 allele), single oral dose, listed as Atomoxetine): increases (improves) SICI
Effect of medication on SICI (children with ADHD [1]; [11]): decrease SICI
Effect of medication on SICI (children with ADHD [1]; [12]): increase (normalize) SICI
Number of subjects reporting side effects (children with ADHD [2]; both, human, in vivo): 4 subjects
Side effect: headache (number of reports) (children with ADHD [2]; both, human, in vivo): 3
Side effect: loss of appetite (number of reports) (children with ADHD [2]; both, human, in vivo): 2
Side effect: nausea (number of reports) (children with ADHD [2]; both, human, in vivo): 2
Side effect: numbness/tingling (number of reports) (children with ADHD [2]; both, human, in vivo): 1
Side effect: scalp pain (number of reports) (children with ADHD [2]; both, human, in vivo): 1
Side effect: stomach pain (number of reports) (children with ADHD [2]; both, human, in vivo): 1
Severity rating of side effects (children with ADHD [2]; in vivo): mild

COC(=O)C(c1ccccc1)C1CCCCN1 (stereo not shown) [MPH, methylphenidate]
Clinical response by DAT1 genotype (ADHD patients; individuals with the DAT1 10/10 genotype, e.g. Cheon et al. (2005)): poorer clinical response
Effect on SICI (children with ADHD [3]): significantly increase (normalize) SICI
Effect of medication on SICI (children with ADHD [1]; [4]): slight decrease in SICI
Cortical Inhibition (SICI), post-medication (children with ADHD [1]; [5]): 0.47
Cortical Inhibition (SICI), post-medication (children with ADHD [1]; [6]): 0.61
Cortical Inhibition (SICI), post-medication (children with ADHD [1]; [7]): 0.64
Cortical Inhibition (SICI), post-medication (children with ADHD [1]; [8]): 0.44
Cortical Inhibition (SICI), post-medication (children with ADHD [1]; [9]): 0.54
Effect of medication on SICI (children with ADHD [1]; [10]): tend to increase (normalize) SICI
Effect of medication on SICI (children with ADHD [1]; [11]): decrease SICI
Effect of medication on SICI (children with ADHD [1]; [12]): increase (normalize) SICI
Severity rating of side effects (children with ADHD [2]; after drug/TMS): mild, except for one child who reports a moderate headache
Side effect: abdominal pain (number of reports) (children with ADHD [2]; after drug/TMS): 1
Side effect: arm/other pain (number of reports) (children with ADHD [2]; after drug/TMS): 2
Side effect: headache (number of reports) (children with ADHD [2]; after drug/TMS): 3
Side effect: hearing change (number of reports) (children with ADHD [2]; after drug/TMS): 1
Side effect: numbness/tingling (number of reports) (children with ADHD [2]; after drug/TMS): 1
Number of subjects reporting side effects (children with ADHD [2]; of 16 subjects, after drug/TMS): 6 subjects
